Several values for one entry are separate records, joined by “and”; a condition that tells them apart may be missing. Identical values can stand only once.
Legend:
[1] = test system: ER+/HER2− metastatic BC; assay: Retrospective study: tumor response and survival of metastatic BC patients treated with CDK4/6 inhibitors; assay type: in vivo, human; settings: palbociclib N=10, ribociclib N=14; for Non-responders (NR): at least 20% increase in sum of diameters of target tumors after 6 months; for Responders (R): at least 30% decrease in sum of diameters of target tumors after 6 months
Text: Here we describe a retrospective study analyzing plasma-based metabolites from a baseline (BL) sample and after 2-months (2M) of treatment of 24 women with ER+/HER2− metastatic BC treated with CDK4/6 inhibitors, palbociclib or ribociclib.

[2] = test system: adenoid cystic carcinomas of the salivary gland; settings: despite increased expression of c-kit; cited from earlier work
[3] = target: T1, CYP2A6 (Homo sapiens, UniProt P11509); settings: off-target effect; cited from earlier work
T1 sequence (P11509 1-494): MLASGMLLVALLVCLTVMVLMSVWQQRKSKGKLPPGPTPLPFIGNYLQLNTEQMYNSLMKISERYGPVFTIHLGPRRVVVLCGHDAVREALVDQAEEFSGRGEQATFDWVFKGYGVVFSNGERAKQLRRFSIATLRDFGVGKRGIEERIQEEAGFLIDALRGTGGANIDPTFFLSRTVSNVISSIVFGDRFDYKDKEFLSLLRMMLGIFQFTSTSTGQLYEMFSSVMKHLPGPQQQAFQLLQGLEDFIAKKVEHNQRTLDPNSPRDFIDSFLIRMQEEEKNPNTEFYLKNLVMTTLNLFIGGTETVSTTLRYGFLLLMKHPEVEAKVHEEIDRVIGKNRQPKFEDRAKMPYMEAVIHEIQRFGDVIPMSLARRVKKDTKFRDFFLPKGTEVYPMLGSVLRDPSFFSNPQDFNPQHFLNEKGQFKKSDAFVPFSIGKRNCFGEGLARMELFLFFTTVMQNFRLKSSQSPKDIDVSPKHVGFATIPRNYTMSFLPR

[4] = target: CYP2C19 (Homo sapiens, UniProt P33261); settings: off-target effect; cited from earlier work
Sequence of CYP2C19 (P33261 whole entry): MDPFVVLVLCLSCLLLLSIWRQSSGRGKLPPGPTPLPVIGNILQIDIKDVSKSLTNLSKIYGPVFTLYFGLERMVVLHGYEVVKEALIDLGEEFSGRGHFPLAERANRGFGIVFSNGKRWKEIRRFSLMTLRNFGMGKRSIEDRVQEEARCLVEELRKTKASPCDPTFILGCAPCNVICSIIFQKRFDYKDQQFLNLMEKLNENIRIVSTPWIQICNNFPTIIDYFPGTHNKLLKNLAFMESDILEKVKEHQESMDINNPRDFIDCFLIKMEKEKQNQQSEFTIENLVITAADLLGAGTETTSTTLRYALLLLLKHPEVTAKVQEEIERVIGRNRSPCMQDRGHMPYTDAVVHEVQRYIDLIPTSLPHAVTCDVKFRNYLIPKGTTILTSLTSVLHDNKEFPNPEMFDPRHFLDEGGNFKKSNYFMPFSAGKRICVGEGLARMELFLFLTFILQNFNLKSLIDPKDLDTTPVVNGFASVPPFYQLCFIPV

Compound	Non-responders (NR) [1]	Responders (R) [1]	effect on adenoid cystic carcinomas of the salivary gland [2]	inhibition of CYP2A6 [3]	inhibition of CYP2C19 [4]
CN(C)C(=O)c1cc2cnc(Nc3ccc(N4CCNCC4)cn3)nc2n1C1CCCC1 [ribociclib]	7 patients and 6 patients	8	–	–	–
CC(=O)c1c(C)c2cnc(Nc3ccc(N4CCNCC4)cn3)nc2n(C2CCCC2)c1=O [palbociclib]	3 patients	7	–	–	–
Cc1ccc(NC(=O)c2ccc(CN3CCN(C)CC3)cc2)cc1Nc1nccc(-c2cccnc2)n1 [imatinib]	–	–	no effect	–	–
N#Cc1ccc(C(c2ccc(C#N)cc2)n2cncn2)cc1 [letrozole]	–	–	–	inhibits	inhibits
